Results published in patent US5776919A, “Potentiators of antimicrobial activity” (priority 1996, dated 1998).
Values after ≈ are worked out from the molar mass of the structure shown. Values joined by “and” are separate entries in the source; they are usually repeats but may differ in a detail not shown here. Identical values can stand only once. Like-named read-outs stand apart in the source and are kept apart here.

Assays:
Type in all cases: cell-based
[1] = tested on: Escherichia coli (ATCC 10536); test: MIC determination by broth dilution
Procedure: (§1) The MICs were determined by the broth dilution method. […] The assays were performed in duplicate.

[2] = tested on: Pseudomonas aeruginosa (ATCC 10145); test: MIC determination by broth dilution
Procedure: as §1

[3] = tested on: Candida albicans (ATCC 10231); test: MIC determination by broth dilution
Procedure: as §1

[4] = tested on: Escherichia coli (ATCC 10536); test: MBC determination
Procedure: (§2) After 24 hours of incubation, the colonies were counted.

[5] = tested on: Pseudomonas aeruginosa (ATCC 10145); test: MBC determination
Procedure: as §2

[6] = tested on: Candida albicans (ATCC 10231); test: MBC determination
Procedure: as §2

[7] = tested on: methicillin-resistant Staphylococcus aureus (ATCC 33591); test: MIC determination by broth dilution
Procedure: as §1

[8] = tested on: methicillin-resistant Staphylococcus aureus (ATCC 33591); test: MBC determination
Procedure: as §2

[9] = compound alone, E. coli ATCC 10536, 2 days at 37° C.
[10] = compound alone, P. aeruginosa (ATCC 10536 [sic]), 2 days at 37° C.
[11] = compound alone, C. albicans ATCC 10231, 2 days at 37° C.
[12] = compound alone, E. coli ATCC 10536
[13] = compound alone, P. aeruginosa (ATCC 10536 [sic])
[14] = compound alone, C. albicans ATCC 10231
[15] = Staphylococcus aureus, ATCC 33591 / MRSA, 48 h, compound alone, MRSA ATCC 33591, 2 days at 37° C., read-out: MIC
[16] = compound alone, MRSA ATCC 33591, 2 days at 37° C.
[17] = compound alone, MRSA ATCC 33591

Compound | MIC [1, 9] | MIC [2, 10] | MBC [4, 12] | MBC [5, 13] | MIC [7, 15] | MIC [7, 16] | also measured
polymyxin E [reference compound] | 3.13 µg/mL | 6.25 µg/mL | 6.25 µg/mL | 12.5 µg/mL | – | – | MIC [3, 11]: 1600 µg/mL; MBC [6, 14]: 1600 µg/mL
CCCCCCCCCCCCCO [Tridecanol, n-tridecanol] | – | – | – | – | 50 µg/mL (≈ 0.25 mM) | – | –
CCCCCCCCCCCCO [Dodecanol, n-dodecanol] | – | – | – | – | 80 µg/mL (≈ 0.429 mM) | – | –
C=CC/C=C\C/C=C\CCCCCCCc1cccc(O)c1C(=O)O [Anacardic Acid (15:3)] | – | – | – | – | – | 6.25 µg/mL (≈ 0.0182 mM) | –
c1ccc2[nH]ccc2c1 [Indole, indole] | – | – | – | – | – | – | MIC ([1]; Escherichia coli, ATCC10536, 48 h): 800 µg/mL (≈ 6.83 mM); MIC ([2]; Pseudomonas aeruginosa, ATCC 10145 / ATCC 10536, 48 h): 400 µg/mL (≈ 3.41 mM); MIC ([7]; Staphylococcus aureus, ATCC 33591 / MRSA, 48 h): 800 µg/mL (≈ 6.83 mM); MIC ([3]; Candida albicans, ATCC10231, 48 h): 400 µg/mL (≈ 3.41 mM); MBC ([4]; Escherichia coli, ATCC10536): 800 µg/mL (≈ 6.83 mM); MBC ([5]; Pseudomonas aeruginosa, ATCC 10145 / ATCC 10536): 800 µg/mL (≈ 6.83 mM); MBC ([8]; Staphylococcus aureus, ATCC 33591 / MRSA): 800 µg/mL (≈ 6.83 mM); MBC ([6]; Candida albicans, ATCC10231): 800 µg/mL (≈ 6.83 mM)
CCCCCCCCCCCO [Undecanol, n-undecanol] | – | – | – | – | 50 µg/mL (≈ 0.29 mM) | – | –
COc1cccc(OC)c1C(=O)N[C@@H]1C(=O)N2[C@@H]1SC(C)(C)[C@@H]2C(=O)O [Methicillin, methicillin, reference compound] | – | – | – | – | 800 µg/mL (≈ 2.1 mM) | – | –
CCC/C=C/C=O [2-Hexenal, t-2-hexenal] | 200 µg/mL and 400 µg/mL | 200 µg/mL (≈ 2.04 mM) | 400 µg/mL (≈ 4.08 mM) | 400 µg/mL (≈ 4.08 mM) | – | 400 µg/mL (≈ 4.08 mM) | MBC [8, 17]: 800 µg/mL (≈ 8.15 mM)
Anacardic Acid | – | – | – | – | – | 6.25 µg/mL | –
polymyxin B [reference compound] | 3.13 µg/mL | 6.25 µg/mL | 3.13 µg/mL | 6.25 µg/mL | – | 800 µg/mL | MIC [3, 11]: 800 µg/mL; MBC [8, 17]: 800 µg/mL; MBC [6, 14]: 1600 µg/mL
